Consider one molecule from patent publication US20260345798A1, “COMPOUNDS AND METHODS OF USE THEREOF” (Virginia Commonwealth University, priority 2023, published 2026).

Residues, ends and D or L forms follow the SMILES beside them.

Data set [1] concerns T cell, MDSC and Treg populations. The data set can be described thus: Flow cytometry of immune cells in lungs of B16-injected mice. The data set is classed as in vivo, mouse. Particulars: 30 mg/kg I.P., 6 injections. The source says: (§1) FIG. 6B is a series of histograms showing the number of nodules/lung, T cell populations (CD8^+IFN-γ^+) and myeloid-derived suppressor cells (MDSCs) in the lungs of the treatment groups described in FIG. 6A, as measured by flow cytometry. *: Statistical significance (p<0.05);**: Statistical significance (p<0.01);***: Statistical significance (p<0.001). ****: Statistical significance (p<0.0001).
FIG. 15 is a histogram showing the comparative effect of DMSO and IVMT-Rx-3 on Treg populations, as measured by flow cytometry. 5×10^5 B16 cells were injected intravenously in C57BL/6 mice, and the mice were treated with DMSO control or IVMT-Rx-3 (intraperitoneal injection 30 mg/kg, 3× in a week, 6 injections in total). MDSC (Cd11^+Gr1^+) and Treg populations (CD4^+CD25^+[…]) in the lungs were measured by flow cytometry.
Single cells were isolated from lungs by digestion with collagenase D and DNAse I. Cells were stained with the corresponding antibodies and fluorescence signals were measured with a BD Fortessa flow cytometer (BD Biosciences, San Jose, CA). Data were analyzed further with FACs DIVA software (BD Biosciences, San Jose, CA) (18). The antibodies used in this study were CD3, Gr1, CD11b, IFN-γ, CD45, CD8 (Biolegend, San Diego, CA, USA). CD4 (BD Biosciences, San Jose, CA, USA), CD25, and FOXP3 (eBiosciences, CA, USA).
A general note: A flow cytometer gives signals particle by particle.

The test system of data set [2] is MDA-9/Syntenin: Src signaling pathways in melanoma cell lines. Put plainly: Western blotting of signaling proteins, other melanoma cell lines. The data set is classed as cell-based, human. The note with it: various melanoma cell lines; Western blot FIG. 12. The protocol:
FIG. 12 is a Western blot of different signaling molecules as indicated for indicated cell lines treated with IVMT-Rx-3 at varying concentrations.
(§2) Western blotting was performed following a standard protocol as described previously (6,8,18,29). Antibodies used in this study were purchased from Cell Signaling Technology (Boston, MA): p-Src (Y416), total Src, matrix metalloproteinase-2 (MMP-2) and matrix metaloproteinase-9 (MMP-9), focal adhesion kinase (FAK), p IKKα/β (S176/180), total IKK, p P38 (T180/Y182) and total P38. MDA-9/Syntenin antibody was obtained from Abnova Inc. (Taiwan). β-actin (Sigma-Aldrich, St. Louis, MO) was used as an endogenous loading control. Fibronectin was purchased from EMD Millipore (Billerica, MA).
Background: In western blotting, separated proteins are transferred to a membrane and probed.

Data set [3] deals with Src, P38 and IκB phosphorylation in A-375 and C8161.9 cells. The data set can be described thus: Western blotting of signaling proteins, human melanoma cells. The format is cell-based. Particulars: 24 hours. The protocol: FIG. 4B is a Western blot of C8161.9 and A-375 cells treated with indicated doses of IVMT-Rx-3 for 24 hours. Cell lysates were subjected to Western blotting analysis to determine the expression levels of various signaling proteins (as shown) associated with MDA-9/Syntenin: Src interactions. Western blotting densitometry and relative intensity of protein bands were calculated using Image J software. The values are provided.
as §2

The next data set deals with IL-6, IL-10, IL-16. Put plainly: IL-6, IL-10, IL-16 mRNA by semiquantitative RT-PCR, murine melanoma cells. The data set is classed as cell-based, mouse. Particulars: murine melanoma cells (B16). The protocol: FIG. 14 is a series of histograms showing the IL-6, IL-10, and IL-16 mRNA fold change in RNA lysates prepared from A-375, C8161.9, and B16 cells treated with IVMT-Rx-3 at varying concentrations as indicated.
Total cellular RNA was extracted using an RNAeasy kit (Qiagen, Germany) as described previously (8,9). All Taqman probes used in this study were obtained from Applied Biosystems (Applied Biosystems, Foster City, CA). Real time PCR was performed using an ABI ViiA7 fast real-time PCR system (Applied Biosystems, Foster City, CA).

A further data set has as its system IGFBP-2. Put plainly: IGFBP-2 in blood plasma of B16-injected mice. The data set is classed as in vivo, mouse. Particulars: 30 mg/kg I.P., 6 injections. The source says: FIG. 6C is a histogram showing the IGFBP-2 expression measured in blood plasma from animals (n=7) in the treatment groups described in FIG. 6A. ****: Statistical significance (p<0.0001).
In a further data set the test system is T cells. The data set can be described thus: T cell infiltration into the tumor environment. Particulars: targeting MDA-9/Syntenin. The data set is classed as in vivo.
For another data set, the system named is B16 lung metastases. Put plainly: B16 lung metastasis model in C57BL/6 mice. The format is in vivo, mouse. The note with it: 30 mg/kg I.P., 3× per week, 6 injections. The protocol:
FIG. 6A is a series of images of B16 lung metastases in C57BL/6 mice treated with DMSO vehicle, PDZ1i, or IVMT-Rx-3 (intraperitoneal injection of 30 mg/kg, 3×/week, 6 injections total). 1×10^5 B16 cells were injected intravenously in C57BL/6 mice (n=7, per group) prior to treatment.
as §1
All animal experiments were performed according to guidelines established by VCU IACUC. Immune competent mice (6-week-old male C57BL/6) were used in this study for determining the anti-metastatic efficiency of IVMT-Rx-3. Mice were purchased from Jackson Laboratories and after one-week in barrier facilities, experiments were performed. To establish lung metastases, murine B16 (1×10^5 cells/0.1 ml PBS) were injected via tail vein in C57BL/6 mice (18). Test chemical (IVMT-Rx-3) was administrated at 30 mg/kg body weight three times a week I.P. for the first two weeks (six injections, C57BL/6 study). DMSO was used as control. Anti-PD-L1 antibody and control antibodies for therapeutic injections were purchased from Bio X Cell (West Lebanon, NH, USA).
1×10^5 B16 cells were injected intravenously in C57BL/6 mice and treated with IVMT-Rx-3 (intraperitoneal injection 30 mg/kg, 3× in a week, 6 injections in total). 100 μg of Anti-PD-L1 antibody was injected through the I/P (intraperitoneal) route (3 times a week, over a 2-week period). A set of 20 animals were first injected with B16 cells (1×10^5 cells/mouse) and randomly divided into four groups (n=5) for survival studies. As stated in the above-mentioned lung metastasis protocol, mice received 6 doses of control vehicle or IVMT-Rx-3 either alone or in combination with anti-PD-L1 over the first two weeks. […]

The subject of data set [4] is X11/mint scaffold protein. The data set can be described thus: Binding to other PDZ domains: X11/mint. Particulars: 33% identity with PDZ1.

Turning to `Cc1cc(NC(=O)c2nc3[nH]c4c(c(=O)n3n2)CCC4)c(C)cc1NC(=O)CCOCCC(=O)N[C@H](C(=O)N[C@@H](CC(N)=O)C(=O)N[C@@H](CCC(=O)O)C(=O)N[C@@H](Cc1ccc(O)cc1)C(=O)N[C@@H](Cc1ccc(O)cc1)C(=O)N[C@H](C(=O)O)C(C)C)[C@@H](C)O` [IVMT-Rx-3] (HELM PEPTIDE1{[Cc1cc(NC(=O)c2nc3[nH]c4c(c(=O)n3n2)CCC4)c(C)cc1NC(=O)CCOCCC(=O)[*:2]].T.N.E.Y.Y.V}$$$$V2.0), in data set [1], the “IFN-γ-producing CD8+ T cell populations” value is reported as “significant increase” and the MDSC populations entry is reported as “suppression of MDSCs”. Moreover, in data set [1] (5×10^5 B16 cells), the Treg population entry is recorded as “no significant changes”. Besides, the “inactivation of MDA-9/Syntenin: Src associated signaling pathways” value in data set [2] is on record as “inactivation of various signaling pathways”. Besides, in data set [3], the “Src activation (Src phosphorylation)” value is given as “significantly reduced Src activation”; the “levels of p-P38, p-Src, and pIκB” value was “Reduced levels”. For the same molecule, in the data set on IL-6, IL-10, IL-16, the “IL-6, IL-10, IL-16 expression” value is on record as “Down-regulation”. The “IGFBP-2 levels in blood plasma” value in the data set with IGFBP-2 is given as “down regulation”. Also, in the data set with T cells, the “T cell infiltration into the tumor environment” value was “causes T cell infiltration into the tumor environment”. Also, the “efficacy against lung metastases compared with PDZ1i” value in the data set on B16 lung metastases is listed as “significantly higher compared with PDZ1i”. Further, the “lung metastasis (combination experiment)” value in the data set with B16 lung metastases (single agent) is reported as “markedly reduced lung metastasis”. For the same molecule, the “number of lung nodules” value in the data set with B16 lung metastases (vs vehicle) was “significantly reduced the number of lung nodules”. Besides, the “binding to X11/mint scaffold protein” value in data set [4] was “did not bind appreciably”.
